Tested on: phospho-Tau
Test: Phospho-Tau assay using cultured rat cortical neurons (okadaic acid insult)
Type: cell-based
Settings: pretreatment, 30 nM okadaic acid, rat cortical cultures, FIG. 14 and 15B
Protocol: Phospho-Tau Assay Using Cultured Rat Cortical Neurons. Primary cortical cell cultures were prepared as described previously.^2 Briefly, pregnant Sprague Dawley dams were euthanized at embryonic day 18 (E18), and the cortices of the pups were harvested. Cells were plated on poly-d-lysine coated plates at 15,000 cells per well. Cultures were maintained at 37° C. under an atmosphere containing 5% CO2. Plating media consisted of 10% heat-inactivated fetal bovine serum (FBS; Fisher) 1% penicillin-streptomycin (Fisher), and 0.5 mM glutamine (Life Technologies) in Neurobasal (Fisher). After 16-24 h, media was exchanged for replacement media consisting of IX B27 supplement (Fisher), 1% penicillin-streptomycin, 0.5 mM glutamine, and 12.5 μM glutamate in Neurobasal. On DIV6 and DIV13, 50% of media was removed, and feeding media containing 1×B27 supplement, 1% penicillin-streptomycin, 0.5 mM glutamine in Neurobasal was added with an additional 20% volume added to account for evaporation. On DIV14, the volume of each well was adjusted to 180 μL. Next, 1000× solutions of compounds in DMSO were diluted 1:100 into Neurobasal and 20 μL of the resulting solutions was added to the appropriate wells (total dilution=1:1000, 0.1% DMSO). For wells that were not treated with compounds, DMSO was diluted 1:100 into Neurobasal and 20 μL of the resulting solution was added to the appropriate wells. All treatments were randomized. After 24 h, 20 μL was removed from each well. […] After 1 h, neurons were fixed by removing 80% of the media and replacing it with a volume of 4% aqueous paraformaldehyde (ThermoFisher) equal to 50% of the working volume of the well. Then, the cells were incubated at room temperature for 15 min before the fixative was aspirated and each well was washed twice with DPBS. Cells were permeabilized using 0.2% Triton X-100 (ThermoFisher) in DPBS for 15 min at room temperature without shaking. Plates were blocked with blocking buffer (2% bovine serum albumin and […] in DPBS) overnight at 4° C. Then, plates were incubated overnight at 4° C. with gentle shaking in antibody dilution buffer (ADB) (1% bovine serum albumin and […] in DBPS) containing a chicken anti-MAP2 antibody (1:10,000; EnCor, CPCA-MAP2), guinea pig anti-Tau antibody (1:1000; Synaptic Systems), mouse anti-phosphoTau (Ser202/Thr205) antibody (1:1000; Invitrogen), and rabbit anti-phosphoTau (Ser396) antibody (1:1000; Invitrogen). Plates were washed twice with DPBS and once with ADB before being incubated for 1 h at room temperature in ADB containing an anti-chicken IgY secondary antibody conjugated to Alexa Fluor™ Plus 800 (1:1000; Invitrogen), an anti-mouse IgG secondary antibody conjugated to Alexa Fluor™ Plus 680 (1:1000; Invitrogen), an anti-guinea pig IgG secondary antibody conjugated to Alexa Fluor™ 596 (1:1000; Invitrogen), and an anti-rabbit IgG secondary antibody conjugated to Alexa Fluor™ Plus 488 (1:1000; Invitrogen). Plates were washed three times with DBPS, and after the final wash, 100 μL of DPBS was added per well before imaging on a CellInsight™ CX7 High Content Analysis imager at 20× with 12 ROIs taken per well with no bias to location and no overlap of the ROIs. Images were analyzed using Cellnomics Scan software (version 6.6.2). The compartmental analysis assay was used to measure the average intensity of each channel per field and determine the reported intensity ratios.

Compound: CN(C)CCn1ccc2ccccc21 [isoDMT, reference compound]
- hyperphosphorylation of Tau (pTau accumulation) induced by okadaic acid: does not
